Data on one molecule can be found in patent US11938121B2, “Treatment of infections and biofilm formation using a cellulose synthase inhibitor” (Purdue Research Foundation, priority 2020, dated 2024).

In one test the test system is rice (Oryza sativa). Kind of test: Rice seedling root growth. The format is in vivo. The settings on record: 20 μM. The source says:
ES20 has broad spectrum inhibitory effect on the growth of both dicotyledonous and monocotyledonous plants (Huang and Zhang, Plant Signal Behav. 2020, 15, 1780039). We tested whether ES20-1 has stronger inhibitory effect on the growth of monocotyledon plants than ES20. We grew rice (Oryza sativa) and maize (Zea mays) seedlings on the same concentrations of ES20 and ES20-1 and compared their effects on growth.

Test [1] has as its target T1, GFP-CESA6c^P595S: GFP-tagged central cytoplasmic domain of AtCESA6 (cellulose synthase, CESA6) carrying missense mutation P595S, with a His-SUMO tag (Arabidopsis thaliana, UniProt Q94JQ6, P595S).
T1 construct: We purified AtCESA6 central cytoplasmic domain carrying missense mutation P595S (CESA6c^P595S); His-SUMO; made in house; host or cells: E. coli
Kind of test: Microscale thermophoresis (MST) binding to purified GFP-tagged CESA6c^P595S (missense mutant). The text has this: FIGS. 3A-3Q. […] FIG. 3A to FIG. 3G. […] FIG. 3A. Representative 5-day-old dark-grown Arabidopsis Col-0 seedlings grown on growth medium supplemented with different concentrations of ES20 or ES20-1. Scale bar: 1 cm. FIG. 3B. Quantification of hypocotyl length of 5-day-old dark-grown Arabidopsis Col-0 seedlings described in FIG. 3A. Data represent mean±SD (n=12 seedlings). FIG. 3C. Quantification of crystalline cellulose content in the hypocotyl cell walls of 7-day-old dark-grown Col-0 seedlings grown on growth medium supplemented with DMSO (0.1%), 1 μM ES20, or 1 μM ES20-1. Data represent mean±SD (n=3 biological replicates). FIG. 3D and FIG. 3E. […] FIG. 3D. Representative image of 6-day-old rice seedlings grown in sterile water supplemented with DMSO (0.1%), 20 μM ES20, or 20 μM ES20-1. Scale bar: 1 cm. FIG. 3E. Quantification of root length of rice seedlings as described in FIG. 3D. Data represent mean±SD (n=10 seedlings). FIG. 3F and FIG. 3G. […] FIG. 3F. […] Quantification of root length of maize seedlings as described in FIG. 3F. […] Quantitative analysis of the band intensity of YFP-AtCESA6 and SEC12 in ES20-1-treated samples divided by that of DMSO-treated samples in the DARTS assay described in FIG. 3H. […] Statistically significant differences in FIG. 3B were determined using one-way ANOVA followed by Tukey's multiple comparisons test. […]

The subject of the next test is Arabidopsis Col-0. The experiment in a line: Crystalline cellulose content measurement of cell wall. It counts as in vivo, Arabidopsis thaliana. On the procedure: Arabidopsis Col-0 seeds were sown on growth medium supplemented with 0.1% DMSO, 1 μM ES20, or different concentrations of ES20 analogs. […] Cellulose extraction and measurement were performed as previously described (Huang et al., 2020).

Test [2] addresses T2, GFP-CESA6c (central cytosolic domain of AtCESA6) (Arabidopsis thaliana, UniProt Q94JQ6).
T2 construct: made in house; host or cells: E. coli
Kind of test: MST assay with GFP-CESA6c. It counts as binding. The text has this: To obtain the central cytosolic domain of AtCESA6 for the MST assay, we inserted the GFP coding sequence into the SacI and PstI restriction enzyme sites of the pRSF-Duet-1 vector (Huang et al., 2020). The GFP coding sequence was amplified from the pUBN-GFP-DEST vector. The sequence encoding the central cytosolic domain of CESA6 (CESA6c) was amplified from Col-0 cDNA and fused with GFP at the C-terminus. CESA6c construct was used as a template for creating CESA6c^P595S construct by site-directed mutagenesis. Protein purification was performed as previously described (Huang et al., 2020).
MST assays were carried out using a Monolith NT.115 (NanoTemper) machine at the Chemical Genomics Facility at Purdue University. […] The ES20-1 was dissolved in DMSO, and the final concentration of DMSO was 5% (vol/vol). MST standard capillaries were used to load the samples into the MST instrument. Triplicate reactions were performed for each test. The MST data were processed using MO. Affinity Analysis Version 2.3 software.

`Cc1ccccc1C(=O)NNC(=S)NC(=O)c1ccccc1` [ES20-1]: the “rice root growth inhibition” value with rice (Oryza sativa) (6-day-old seedlings) is on record as “could inhibit the root growth”. The “degree of rice root growth inhibition compared with ES20” value with rice (Oryza sativa) (same dosage) is “much stronger than that of the same dosage of ES20”. Moreover, the Kd in test [1] worked out at 9.5 ± 6.3 µM. In the test on Arabidopsis Col-0 (1 μM, 7-day-old dark-grown seedlings, mean±SD, n=3), the “crystalline cellulose content in hypocotyl cell wall” value worked out at 90 ± 6 µg/mg. The “reduction of crystalline cellulose levels in the hypocotyl” value with Arabidopsis Col-0 (1 μM, 7-day-old dark-grown seedlings, vs DMSO) is listed as roughly 45%. Besides, the “root cell wall crystalline cellulose content” value in the test with Arabidopsis Col-0 (7-day-old light-grown seedlings, different concentrations) was “very potent in inhibiting cellulose biosynthesis in roots”. In test [2] (100 nM GFP-CESA6c), the “interaction with CESA6c” value was “interacted”. The “relative binding affinity to CESA6c” value in test [2] (MST) is reported as “may have a higher binding affinity to CESA6c than ES20”.
